Test results reported in US20040198800A1, “Lipoxygenase inhibitors as hypolipidemic and anti-hypertensive agents” (priority 2002, published 2004).

Legend:
diabetic rat model = settings: Babu et al. 1997; cited from earlier work
[1] = background statement; cited from earlier work
[2] = test system: high-fructose diet fed rats; experiment: Example 1: in vivo efficacy of 5-LO inhibitors in diet-induced model of hypertriglyceridemia and hypertension (serum TG, FFA, insulin, glucose, body weight); parameters: species or system Sprague-Dawley rats; settings: oral gavage twice a day for 5 days; for effect on serum triglycerides: NDGA 250 mg/kg (p=0.0004), BW 755c 100 mg/kg (p=0.0002), day 0 vs day 5, FIG. 1; for effect on serum insulin levels: NDGA 250 mg/kg (p=0.003); for effect on serum insulin levels / effect on increase in serum free fatty acids during treatment / effect on serum glucose: BW 755c 100 mg/kg; for effect on increase in serum free fatty acids during treatment / effect on serum glucose: NDGA 250 mg/kg
Description: Male Sprague-Dawley rats weighting 175-200 g were used in these studies. […]. Rats were first maintained on a chow diet for ˜1 wk and then were divided into four groups (7 or 8 animals in each group). Three groups were switched to a high-fructose diet (Harlan Teklad, Madison, Wis.) that provided 60% of total calories as fructose. The fourth group was maintained on normal chow to serve as an overall control group. After 14 days on the high-fructose diet, the degree of hypertriglyceridemia was evaluated by determining the total plasma TG levels. On day 0 of treatment, tail vein blood was collected for baseline measurements of serum TG, glucose, insulin, and FFA. […] All animals were dosed two times a day for 5 days (days 1-5), delivered by oral gavage. On day 5 of treatment (approximately 3 hours after the oral dose) vein blood was collected for measurements of serum TG, glucose, insulin, and FFA. During the treatment period, rats were maintained on their prescribed diets. Body weights were measured on day 0 and day 5.
Serum samples were used to measure TG and glucose concentrations by enzymatic […] methods using Sigma Diagnostic kits (St. Louis, Mo.). Serum insulin concentrations were by RIA using a Linco Rat Insulin RIA kit (St. Charles, Mo.). FFA concentrations were measured using the nonesterified fatty acid (NEFA) C kit by the ACS-ACOD method following the instructions of the manufacturer.
Data was statistically analyzed using paired t-tests to determine significance.

[3] = test system: high fructose fed (HFF) rats; experiment: Example 2: effect of lipoxygenase inhibitors on serum metabolic components of HFF rats; type: in vivo, Sprague-Dawley rats; settings: for Cholesterol, Day 15 / Cholesterol, Day 19: serum total cholesterol; for Cholesterol, Day 19 / Glucose, Day 19 / FFA, Day 19 / Insulin, Day 19 / TG, Day 19: Day 19 after 4 days BID oral gavage (NDGA 250 mg/kg, BW 755c 100 mg/kg); for Glucose, Day 19: 3 hours after last dose
Description: Male rats were initially divided into HFF or chow (control) groups and maintained for 14 days on the prescribed diet. […] On days 15-19 all groups were treated by oral gavage twice daily with either drug or vehicle. On days 15 and 19 serum was collected for analysis. On day 20, the groups were subdivided to receive either LPS or vehicle (saline). Post-LPS treatment, the animals were sacrificed and their livers were isolated for analysis.
Male Sprague-Dawley rats weighing approximately 180-200 g first maintained on a rat chow diet and then were divided into four groups, three of which were switched to a high-fructose diet (Harlan Teklad, Madison, Wis.) that provided 60% of total calories as fructose (Day 1). On day 15 of treatment, the rats were fasted for 4 hours and tail vein blood was collected for baseline measurements of serum TG, glucose, insulin and free fatty acids (FFA) as previously described (Gowri et al., Am. J. Hypertension, 12: 744-746 (1999)). […] The chow group (diet control) was treated with vehicle. During the treatment regimen the animals were maintained on high-fructose diet. […] On day 20, four animals in each group were injected (iv) with 0.5 mg/kg BW Salmonella enterifdis endotoxin (lipopolysaccharide, LPS) or normal saline under light anaesthesia. After 2 hours, serum was collected for corticosterone measurement, as described previously (Kraemer et al., Endocrinology, 143: 801-806 (2002)), and then the animals were sacrificed and tissues removed, snap-frozen in liquid nitrogen and stored at −80° C. until analyzed. The local committee on animal care approved all animal protocols.
Statistical analysis were performed by either paired or unpaired t-test using GraphPad Prism version 3.00 for Windows, GraphPad Software, San Diego Calif. USA. A difference between groups was considered significant if P was less than 0.05. Normalized Western Blot data were obtained as a ratio of the units measured for phosphorylated protein divided by the units measured for total protein. Statistical analyses were performed on the normalized data.

in vivo animal models = settings: Maya et al. 2000; Scribner et al. 2000; cited from earlier work
[4] = Day 15 = baseline before drug treatment, mean ± S.E., n = 7-8
[5] = serum, Day 15 = baseline before drug treatment, mean ± S.E., n = 7-8

| SMILES | properties in in vivo diabetic rat model (diabetic rat model) | bioavailability [1] | effect on serum triglycerides [2] | effect on serum insulin levels [2] | effect on increase in serum free fatty acids during treatment [2] | effect on serum glucose [2] | effect on serum total cholesterol ([3]; four days BID oral treatment) | Cholesterol, Day 15 [3, 4] | Cholesterol, Day 19 ([3]; mean ± S.E., n = 7-8) | Glucose, Day 15 ([3]; serum, Day 15 = baseline before drug treatment, 4 h fasted, mean ± S.E., n = 7-8) | FFA, Day 15 [3, 5] | Insulin, Day 15 [3, 5] | TG, Day 15 [3, 5] | Glucose, Day 19 ([3]; serum, mean ± S.E., n = 7-8) | FFA, Day 19 ([3]; serum, mean ± S.E., n = 7-8) | Insulin, Day 19 ([3]; serum, mean ± S.E., n = 7-8) | TG, Day 19 ([3]; serum, mean ± S.E., n = 7-8) | properties in in vivo animal models (in vivo animal models) | effect on fasting blood glucose ([3]; four days BID oral treatment) | effect on fasting serum insulin ([3]; four days BID oral treatment) |
| --- | --- | --- | --- | --- | --- | --- | --- | --- | --- | --- | --- | --- | --- | --- | --- | --- | --- | --- | --- | --- |
| COc1cc(/C=C/C(=O)CC(=O)/C=C/c2ccc(O)c(OC)c2)ccc1O [Curcumin] | hypolidemic properties | poorly bioavailable |  |  |  |  |  |  |  |  |  |  |  |  |  |  |  |  |  |  |
| NC1=NN(c2cccc(C(F)(F)F)c2)CC1 [BW 755c, 4,5-dihydro-1-(3-(trifluoromethyl)phenyl)-1H-pyrazol-3-amine] |  |  | significantly reduced | no effect | ameliorated | no effect | Neither of these effects was observed | 107.6 ± 3 mg/dL | 104.5 ± 2 mg/dL | 119 ± 7 mg/dL | 554 ± 71 μEq/L | 1.6 ± 0.3 ng/mL | 296 ± 31 mg/dL | 114 ± 7 mg/dL | 504 ± 42 μEq/L | 1.7 ± 0.3 ng/mL | 112 ± 20(^4) mg/dL |  |  |  |
| C[C@H](Cc1ccc(O)c(O)c1)[C@@H](C)Cc1ccc(O)c(O)c1 [NDGA, nordihydroguaiaretic acid] |  | poorly bioavailable | significantly reduced | significantly lowered | ameliorated | without increasing serum glucose | significantly reduced | 118.6 ± 3 mg/dL | 98.3 ± 4(^7) mg/dL |  | 599 ± 51 μEq/L | 2.3 ± 0.3 ng/mL | 384 ± 48 mg/dL | 122 ± 8 mg/dL | 611 ± 101 μEq/L | 0.9 ± 0.1(′) ng/mL | 97 ± 6 mg·s/dL | hypolipidemic and antihypertensive properties | without significantly altering | significantly decreased |
